Measured values: paper PMC8830247 (Journal of medicinal chemistry, 2019)

How the values were obtained:
D3R = conditions: cited from earlier work
dogs = conditions: cited from earlier work
[1] = rats, PO 10 mg/kg; adapted from previously reported data; cited from earlier work
[2] = test system: oxycodone self-administration; conditions: cited from earlier work
[3] = hot plate assay; cited from earlier work
rats = conditions: pretreatment, rats chronically treated with oxycodone; cited from earlier work
[4] = Pharmacokinetics in rats after oral administration, plasma and brain; conditions: PO 10 mg/kg
Human Dopamine D3R = Human Dopamine D3R (Homo sapiens, UniProt P35462); assay: Stimulation or inhibition of quinpirole-stimulated mitogenesis in CHO cells; format: cell-based; conditions: mitogenesis assay
Chain of Human Dopamine D3R (P35462 whole entry): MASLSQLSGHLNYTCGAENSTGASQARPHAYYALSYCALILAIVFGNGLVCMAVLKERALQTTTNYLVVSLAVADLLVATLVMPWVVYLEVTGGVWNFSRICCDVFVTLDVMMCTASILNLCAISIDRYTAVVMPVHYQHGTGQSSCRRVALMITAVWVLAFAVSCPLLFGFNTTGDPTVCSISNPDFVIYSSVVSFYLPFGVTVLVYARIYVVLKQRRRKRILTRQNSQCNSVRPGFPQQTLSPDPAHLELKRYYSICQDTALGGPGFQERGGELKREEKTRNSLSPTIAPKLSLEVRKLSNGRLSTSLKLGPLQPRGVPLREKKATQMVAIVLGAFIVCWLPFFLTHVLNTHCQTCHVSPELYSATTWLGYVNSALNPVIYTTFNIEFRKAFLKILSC

5-HT1A receptor = target: T1, 5-HT1A receptor (Homo sapiens, UniProt P08908); assay: 5-HT1A [35S]GTPγS binding functional assay
T1 sequence (P08908 1-422): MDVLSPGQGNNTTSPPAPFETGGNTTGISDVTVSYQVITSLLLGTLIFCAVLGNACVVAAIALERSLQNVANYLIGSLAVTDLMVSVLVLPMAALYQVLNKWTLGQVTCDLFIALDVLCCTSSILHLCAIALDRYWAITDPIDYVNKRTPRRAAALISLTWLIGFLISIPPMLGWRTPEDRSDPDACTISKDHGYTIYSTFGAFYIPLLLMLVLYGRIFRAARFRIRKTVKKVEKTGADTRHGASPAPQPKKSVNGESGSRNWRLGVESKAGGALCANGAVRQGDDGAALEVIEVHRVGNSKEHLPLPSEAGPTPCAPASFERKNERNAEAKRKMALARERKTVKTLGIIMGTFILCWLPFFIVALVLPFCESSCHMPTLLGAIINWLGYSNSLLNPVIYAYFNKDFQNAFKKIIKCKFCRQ

SMILES: CCc1cccc(N2CCN(CC(O)CCNC(=O)c3cc4ccccc4[nH]3)CC2)c1Cl (centres unmarked) [compound 5]
- D3R functional efficacy (in words) (D3R): relatively low efficacy partial agonist

SMILES: Cc1ncoc1-c1nnc(SCCCN2C[C@@H]3C[C@]3(c3ccc(C(F)(F)F)cc3F)C2)n1C [compound 1]
- blood pressure effect when coadministered with cocaine (dogs): produced hypertension

SMILES: CCc1cccc(N2CCN(C[C@H](O)CCNC(=O)c3cc4ccccc4[nH]3)CC2)c1Cl [(R)-5, (R)-N-(4-(4-(2-Chloro-3-ethylphenyl)piperazin-1-yl)-3-hydroxybutyl)-1H-indole-2-carboxamide]
- plasma exposure (AUC0-t) [1]: 1.985 ± 0.2786 µM·h

SMILES: CCc1cc(Cl)c(OC)c(N2CCN(CC(O)CCNC(=O)c3cc4ccccc4[nH]3)CC2)c1 (centres unmarked) [compound 4]
- acquisition and maintenance of oxycodone self-administration [2]: dose-dependently inhibited
- oxycodone extinction response and reinstatement of oxycodone-seeking [2]: inhibited oxycodone extinction response and reinstatement of oxycodone-seeking behaviors
- break-point for oxycodone self-administration ([2]; progressive-ratio schedule of reinforcement): lowering the break-point
- effect on antinociceptive actions of oxycodone [3]: no effect
- naloxone-precipitated conditioned place aversion (rats): dose-dependently reduced

SMILES: O=C(NCC[C@H](O)CN1CCN(c2cccc(Cl)c2Cl)CC1)c1cc2ccccc2[nH]1 [(S)-2]
- D3R functional efficacy (in words) (D3R): weak partial agonist

SMILES: CCc1cccc(N2CCN(C[C@@H](O)CCNC(=O)c3cc4ccccc4[nH]3)CC2)c1Cl [(S)-5, (S)-N-(4-(4-(2-Chloro-3-ethylphenyl)piperazin-1-yl)-3-hydroxybutyl)-1H-indole-2-carboxamide]
- brain Cmax [4]: 3666.7 ± 312.7 pmol/g

SMILES: CCc1cc(Cl)c(OC)c(N2CCN(C[C@H](O)CCNC(=O)c3cc4ccccc4[nH]3)CC2)c1 [(R)-4, (R)-N-(4-(4-(3-Chloro-5-ethyl-2-methoxyphenyl)piperazin-1-yl)3-hydroxybutyl)-1H-indole-2-carboxamide]
- D3R functional efficacy (in words) (Human Dopamine D3R): D3R antagonists

SMILES: CCc1cc(Cl)c(OC)c(N2CCN(C[C@@H](O)CCNC(=O)c3cc4ccccc4[nH]3)CC2)c1 [(S)-4, (S)-N-(4-(4-(3-Chloro-5-ethyl-2-methoxyphenyl)piperazin-1-yl)3-hydroxybutyl)-1H-indole-2-carboxamide]
- D3R functional efficacy (in words) (Human Dopamine D3R): D3R antagonists

SMILES: CCc1cccc(N2CCN(CC(F)CCNC(=O)c3cc4ccccc4o3)CC2)c1Cl (centres unmarked) [10b, N-(4-(4-(2-Chloro-3-ethylphenyl)piperazin-1-yl)-3-fluorobutyl)benzofuran-2-carboxamide]
- 5-HT1A functional efficacy (in words) (5-HT1A receptor): low potency partial agonist

SMILES: O=C(NCC[C@@H](O)CN1CCN(c2cccc(Cl)c2Cl)CC1)c1cc2ccccc2[nH]1 [(R)-2]
- D3R functional efficacy (in words) (D3R): antagonist
